Earlier results on one compound are cited in patent US10561630B2, “Hydroxycitric acid compounds and capsule liquid delivery” (GLYKON TECHNOLOGIES GROUP, LLC, priority 2016, dated 2020).

The conditions of data set [1]: single large oral dose or two divided oral doses; min. 2.63 mmoles/kg once per day or 0.33 mmoles/kg twice per day; high-sugar diet.
The conditions of data set [2]: 2-week period.

For `O=C(O)CC(O)(C(=O)O)C(O)C(=O)O` (single isomer, unassigned; (-)) [HCA, (−)-hydroxycitric acid], in data set [1], the “reduction in food consumption” value is ≥ 10%. In data set [2] (900 mg HCA, dissolved in 100 ml tomato juice), the food intake decreased is listed as 15-30%. Also, in data set [2], the weight loss entry is “no significant weight loss”.
